According to patent US4398937A, “Selective algaecides for control of cyanochloronta” (The University of Southern Mississippi, priority 1981, dated 1983):
Where two headings read alike, the source gives them in different places.

How the values were obtained:
Type in all cases: cell-based
[1] = tested on: Anabaena flos-aquae; assay: Test tube culture inhibition of Anabaena flos-aquae, algal units/ml
Method: (§1) The algae used in this particular study were Chlamydomonas sp., Chlorella vulgaris, Anabaena sp., and Anabaena flos-aquae. Cultures of these algae were obtained, subcultured, and aqueous stocks of algae in 400 ml BBM were prepared and were used in log phase growth to innoculate test cultures.
(§2) The fatty acids which were tested as algal inhibitors were 9, 10-dihydroxystearic acid, linoleic acid, dodecanoic acid, and ricinoleic acid.
(§3) The test procedure involved placing 15 ml of BBM into 25 ml test tubes and innoculating them with 0.2 ml of algal stock solution. Twenty test tubes were innoculated with each algae. Four of these cultures were used with each concentration of each of the fatty acids. Four tubes from each set served as controls. Four concentrations of the fatty acids were used for each alga. The concentrations studied were 0.5 PPM, 1.0 PPM, 5.0 PPM, and 10.0 PPM.
(§4) Algal cultures were incubated under constant light of about 200 foot-candles and at a temperature of 68° F. Bold's Basal Medium (BBM), a modification of Bristol's solution was the medium in which all the cultures were grown. Bold's Basal Medium was prepared as follows:
(§5) Concentrations of fatty acids and the amount of stock solution used to prepare them were as follows:
(§6) Each test tube contained 15 ml sterile BBM. To this was added an aliquot of 0.2 of algal stock solution. Then the appropriate aliquots of warm acid stock solution were added to the appropriate number of culture tubes. These cultures were then incubated 5 days and at that point were counted. The same cultures were also counted after a 12 day growth period.
(§7) Stock solutions of the fatty acids to be tested as algal inhibitors were made from a stock solution of 5% sodium bicarbonate in glass-distilled water. The 5% sodium bicarbonate stock solution was made by dissolving 150 grams of sodium bicarbonate in 3000 ml of glass-distilled water. To insure complete dissolution, the solution was heated and stirred on a magnetic stirrer hot plate. The warm solution was used in preparing the fatty acid stock solutions.
(§8) Quanitative phytoplankton values were determined using the random field method. Filaments, colonies, and aggregations of cells were recorded as algal units. Each unit consisted of approximately 6 cells. Unicellular algae were counted as separate units. Algal counts were made from each of three duplicate cultures. One ml of the algal sample was placed in a Sedgwick-Rafter counting chamber, which is 50 mm long by 20 mm, wide by 1 mm deep. A Wild Heerbrugg, compound microscope with a Whipple grid eyepiece was used to determine quantitative algae values.
(§9) One ml of the algal solution was placed in the counting chamber, and two drops of methyl cellulose were added to minimize the movement of Chlamydomonas sp. Ten random fields were counted and all organisms within the Whipple grid field were enumerated.
(§10) The following formula used to calculate the numbers per milliliter from the field counts: [formula] where: C=number of organisms counted,
(§11) The area of the Whipple grid used was 0.46 mm^2, and the depth of a field was 1 mm. Results of the counts were reported as algal units/ml.

[2] = tested on: Anabaena flos-aquae; assay: 300 ml batch culture of Anabaena flos-aquae, visual
Method: (§12) As a means of visually confirming some of the results batch cultures of 300 ml. of Anabaena flos-aquae and Chlorella vulgaris were grown.

[3] = tested on: Chlorella vulgaris; assay: 300 ml batch culture of Chlorella vulgaris, visual; conditions: batch cultures, all concentrations
Method: as §12

[4] = tested on: Chlorella vulgaris; assay: Test tube culture inhibition of Chlorella vulgaris, algal units/ml
Method: as §1, §2, §3, §4, §5, §6, §7, §8, §9, §10, §11

[5] = tested on: Anabaena sp.; assay: Test tube culture inhibition of Anabaena sp., algal units/ml
Method: as §1, §2, §3, §4, §5, §6, §7, §8, §9, §10, §11

[6] = tested on: Chlamydomonas sp.; assay: Test tube culture inhibition of Chlamydomonas sp., algal units/ml
Method: as §1, §2, §3, §4, §5, §6, §7, §8, §9, §10, §11

[7] = 5 and 12 days, all concentrations

With CCCCCC[C@@H](O)C/C=C\CCCCCCCC(=O)O [Ricinoleic Acid, ricinoleic acid] the “effect on algal growth” value [1, 7] was “inhibitory effect”, the Algal units/ml ([1]; 5 days, 0.5 PPM) was 435 units/ml and the Algal units/ml ([1]; 5 days, 1.0 PPM) was 1087 units/ml. It also gave an Algal units/ml ([1]; 5 days, 5.0 PPM) of 1087 units/ml, an Algal units/ml ([1]; 5 days, 10.0 PPM) of 652 units/ml and an Algal units/ml ([1]; 12 days, 0.5 PPM) of 10217 units/ml. For the same compound, the Algal units/ml ([1]; 12 days, 1.0 PPM) was 6522 units/ml, the Algal units/ml ([1]; 12 days, 5.0 PPM) was 4783 units/ml and the “reduction in number of algal units/ml vs control” value ([1]; 12 days, 10 PPM) was 38,261 algal units/ml. For the same compound, the Algal units/ml ([1]; 12 days, 10.0 PPM) was 3043 units/ml, the inhibition of growth at 10 ppm ([1]; Dolichospermum flos-aquae, 288 h, 12 days, 10 PPM, read-out: reduction in number of algal units/ml, % of the control) was 92.6% and the “inhibition (visual)” value ([2]; 1 PPM) was “slightly inhibited”. The “inhibition (visual)” value ([2]; 10 PPM) was “greatly inhibited”, the “inhibition (visual)” value [3] was “no inhibition was noticed” and the Algal units/ml ([4]; 5 days, 0.5 PPM) was 20217 units/ml. It also gave an Algal units/ml ([4]; 5 days, 1.0 PPM) of 21739 units/ml, an Algal units/ml ([4]; 5 days, 5.0 PPM) of 22391 units/ml and an Algal units/ml ([4]; 5 days, 10.0 PPM) of 20870 units/ml. The Algal units/ml ([4]; 12 days, 0.5 PPM) was 217391 units/ml, the Algal units/ml ([4]; 12 days, 1.0 PPM) was 326087 units/ml and the Algal units/ml ([4]; 12 days, 5.0 PPM) was 326087 units/ml. For the same compound, the Algal units/ml ([4]; 12 days, 10.0 PPM) was 326087 units/ml, the activation at 0.5 ppm ([4]; Chlorella vulgaris, 120 h, 5 days, 0.5 PPM, read-out: more algal units/ml than in the control) was 86% and the activation at 10 ppm ([4]; Chlorella vulgaris, 288 h, 12 days, 10 PPM, read-out: more algal units/ml than in the control) was 50%. For the same compound, the “effect on algal growth” value ([4]; all concentrations at 5 days, 5 and 10 PPM at 12 days) was “stimulatory effect”, the inhibition of growth at 5 ppm ([5]; 120 h, 5 days, 5.0 PPM, read-out: reduction of algal units/ml, % of the control) was 15.6% and the inhibition of growth at 10 ppm ([5]; 120 h, 5 days, 10.0 PPM, read-out: reduction of algal units/ml, % of the control) was 30.6%. For the same compound, the Algal units/ml ([5]; 5 days, 0.5 PPM) was 36522 units/ml, the Algal units/ml ([5]; 5 days, 1.0 PPM) was 35652 units/ml and the Algal units/ml ([5]; 5 days, 5.0 PPM) was 26957 units/ml. For the same compound, the Algal units/ml ([5]; 5 days, 10.0 PPM) was 22174 units/ml, the “reduction in algal units/ml vs control” value ([5]; 5 days, 10.0 PPM) was 9,783 algal units/ml and the inhibition of growth at 0.5 ppm ([5]; 288 h, 12 days, 0.5 PPM (so in the source), read-out: reduction of algal units/ml, % of the control) was 59.7%. The inhibition of growth at 10 ppm ([5]; 288 h, 12 days, 10 PPM, read-out: reduction of algal units/ml, % of the control) was 65.2%, the Algal units/ml ([5]; 12 days, 0.5 PPM) was 97391 units/ml and the “reduction of algal units/ml vs control” value ([5]; 12 days, 0.5 PPM (so in the source)) was 70,434 algal units/ml. The Algal units/ml ([5]; 12 days, 1.0 PPM) was 81957 units/ml, the Algal units/ml ([5]; 12 days, 5.0 PPM) was 47609 units/ml and the “reduction of algal units/ml vs control” value ([5]; 12 days, 10 PPM) was 76,956 algal units/ml. The Algal units/ml ([5]; 12 days, 10.0 PPM) was 41087 units/ml, the “effect on growth” value ([5]; concentrations of 1.0 PPM or less) was “stimulatory effect” and the “effect on algal growth” value [6, 7] was “stimulatory effect”. The “concentration of maximum stimulatory effect” value ([6]; 5 days) was 5.0 PPM, the Algal units/ml ([6]; 5 days, 0.5 PPM) was 18696 units/ml and the Algal units/ml ([6]; 5 days, 1.0 PPM) was 29130 units/ml. For the same compound, the Algal units/ml ([6]; 5 days, 5.0 PPM) was 32609 units/ml, the Algal units/ml ([6]; 5 days, 10.0 PPM) was 13043 units/ml and the “concentration of maximum stimulatory effect” value ([6]; 12 days) was 0.5 PPM. It also gave an Algal units/ml ([6]; 12 days, 0.5 PPM) of 65217 units/ml, an Algal units/ml ([6]; 12 days, 1.0 PPM) of 63043 units/ml and an Algal units/ml ([6]; 12 days, 5.0 PPM) of 52174 units/ml. It also gave an Algal units/ml ([6]; 12 days, 10.0 PPM) of 54348 units/ml and an activation at 5 ppm ([6]; Chlamydomonas, 120 h, read-out: increase in number of algal units/ml of the control) of 183%.
